Biological target: T1, HA-CaSR WT (Rattus norvegicus, UniProt P48442)
T1 construct: mGluR5 signal peptide (N); expressed in transfected cells; host or cells: HEK293T
T1 sequence (P48442 20-1079): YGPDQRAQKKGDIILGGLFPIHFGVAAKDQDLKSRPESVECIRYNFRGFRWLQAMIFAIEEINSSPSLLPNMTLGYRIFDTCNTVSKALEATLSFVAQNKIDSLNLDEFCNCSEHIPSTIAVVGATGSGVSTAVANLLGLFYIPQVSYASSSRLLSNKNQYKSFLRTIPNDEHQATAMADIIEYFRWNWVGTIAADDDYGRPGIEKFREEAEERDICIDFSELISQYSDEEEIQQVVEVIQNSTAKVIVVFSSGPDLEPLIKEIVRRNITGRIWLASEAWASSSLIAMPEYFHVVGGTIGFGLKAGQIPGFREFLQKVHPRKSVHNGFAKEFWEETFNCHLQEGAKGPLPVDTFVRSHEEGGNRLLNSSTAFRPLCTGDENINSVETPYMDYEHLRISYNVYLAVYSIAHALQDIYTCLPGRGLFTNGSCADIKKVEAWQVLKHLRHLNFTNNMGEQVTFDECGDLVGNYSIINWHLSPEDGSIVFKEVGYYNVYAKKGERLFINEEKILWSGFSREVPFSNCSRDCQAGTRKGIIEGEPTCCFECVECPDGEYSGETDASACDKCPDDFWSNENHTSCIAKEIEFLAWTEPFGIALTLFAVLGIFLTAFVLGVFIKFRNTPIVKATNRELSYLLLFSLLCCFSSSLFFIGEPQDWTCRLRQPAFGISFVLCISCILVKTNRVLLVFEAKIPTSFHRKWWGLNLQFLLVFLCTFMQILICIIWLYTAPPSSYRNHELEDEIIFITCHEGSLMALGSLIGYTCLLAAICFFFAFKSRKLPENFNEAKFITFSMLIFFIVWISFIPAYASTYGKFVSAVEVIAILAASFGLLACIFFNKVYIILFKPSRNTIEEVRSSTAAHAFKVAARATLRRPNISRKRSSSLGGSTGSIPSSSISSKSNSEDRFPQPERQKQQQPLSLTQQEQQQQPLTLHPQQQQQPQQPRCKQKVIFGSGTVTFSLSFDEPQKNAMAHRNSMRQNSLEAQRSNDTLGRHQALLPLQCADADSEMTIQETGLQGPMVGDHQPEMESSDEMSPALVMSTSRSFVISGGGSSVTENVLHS
Assay: IP-One assay (IP1 accumulation, Gq signaling), HEK293T transiently transfected
Assay type: cell-based
Experimental: Human embryonic kidney (HEK) 293T cells were cultured in DMEM supplemented with 10% dFBS and 1% P/S at 37 °C and 5% CO2. 48 h prior to assay, transient transfection was performed using Lipofectamine 2000 as the transfection reagent. White opaque 96-well culture plates (PerkinElmer, Waltham, MA, USA) were used for the ELISA and the TR-FRET dimerization assay, while clear tissue culture treated 96-well plates (Corning, Corning, NY, USA) were used for the IP-One assay. Both plate types were coated with poly-D-lysine before addition of cells and transfection mix. 0.25 μl/well of Lipofectamine 2000 were diluted in 25 μl/well of Opti-MEM and incubated at room temperature (RT) for 5 min. 0.03 μg/well of DNA was diluted in 25 μl/well of Opti-MEM, and subsequently mixed with the Lipofectamine 2000 dilution and incubated 20 min at RT before addition to the plates. Cell suspensions of 170.000 HEK293T cells/mL were prepared in complete growth medium and 100 μl/well (17.000 cells/well) was added to the plates, which were incubated for 48 h at 37 °C and 5% CO2 before performing assays.
Functional activity was measured using the IP-One assay, which is an IP1 accumulation assay. For agonist testing, ligands were prepared in final concentrations in ligand buffer (HBSS, 20 mM HEPES, pH 7.4 supplemented with 20 mM LiCl). Cells were washed once with 100 μl/well of assay buffer (HBSS, 20 mM HEPES, pH 7.4) and 50 μl/well of agonist solution was added after which plates were incubated at 37 °C for 30 min. Subsequently, ligand solutions were removed and cells were washed with 100 μl/well of assay buffer. Cell lysis was performed by addition of 30 μl/well of IP-One Conjugate & Lysis Buffer (Cisbio Bioassays, Codolet, France) and plates were incubated at RT for 30 min. Afterwards, 30 μl/well of assay buffer was added to dilute the cell lysate. 10 μl/well of cell lysate was transferred from the 96-well plate to a 384-well Optiplate and 10 μl/well of detection solution (Assay buffer + 2.5% of anti-IP1 antibody cryptate Terbium conjugate + 2.5% IP1-d2 conjugate (Cisbio Bioassays, Codolet, France)) was also added. The 384-well plate was incubated for 1 h at RT in dark before being measured on an EnVision plate reader (PerkinElmer, Waltham, MA, USA). Upon excitation at 340 nm, emission at 615 nm and 665 nm was measured, and the FRET ratio (665 nm/615 nm) was converted to IP1 concentrations by interpolating values from an IP1 standard curve generated from a provided IP1 calibrator (Cisbio Bioassays, Codolet, France). When testing allosteric modulators, cells were pre-incubated for 30 min at 37 °C with 50 μl/well of ligand buffer supplemented with allosteric modulator and a final concentration of 1% DMSO. Afterwards, the buffer solution was removed and 50 μl/well of agonist solution in ligand buffer supplemented with allosteric modulator and a final concentration of 1% DMSO was added. Plates were incubated for 30 min at 37 °C followed by one wash in 100 μl/well of assay buffer. Cell lysis and detection was performed as described above.

Compound: [Ca+2] [Ca^2+]
- EC50 (Ca^2+ alone, Table 1): 3.77 mM
- Hill coefficient ± S.E.M. (Ca^2+ alone, Table 1): 3.62 ± 0.48
- pEC50 ± S.E.M. (Ca^2+ alone, Table 1): 2.42 ± 0.01
- EC50 (Ca^2+ alone, Table 3): 3.21 mM
- pEC50 ± S.E.M. (Ca^2+ alone, Table 3): 2.49 ± 0.01
- Max ± S.E.M. (Ca^2+ alone, normalized to maximum response of WT CaSR, Table 3): ≈100%
- EC50 (Ca^2+ with 1 μM NPS R-568): 1.28 mM
- pEC50 ± S.E.M. (Ca^2+ with 1 μM NPS R-568): 2.89 ± 0.01
- Max ± S.E.M. (Ca^2+ with 1 μM NPS R-568, normalized to maximum response with Ca^2+ alone for the construct): 110 ± 11%
- EC50 (Ca^2+ with 5 μM NPS 2143): 8.4 mM
- pEC50 ± S.E.M. (Ca^2+ with 5 μM NPS 2143): 2.08 ± 0.01
- Max ± S.E.M. (Ca^2+ with 5 μM NPS 2143, normalized to maximum response with Ca^2+ alone for the construct): 72 ± 5.6%
- Max ± S.E.M. (normalized to maximum response of WT CaSR, Table 1): 100%
